Results reported in patent US20230250096A1, “SUBSTITUTED PHENYL-1H-PYRROLO[2,3-c] PYRIDINE DERIVATIVES” (Janssen Pharmaceutica NV, priority 2021, published 2023).

Molecular target: T1, menin/MLL (terbium chelate-labeled menin, FITC-MBM1 peptide) (Homo sapiens, UniProt O00255, T541A)
T1 construct: Menin (a.a 1-610-6xhis tag, 2.3 mg/mL in 20 mM Hepes)
T1 sequence (O00255 with tags, fused parts or gaps T541A): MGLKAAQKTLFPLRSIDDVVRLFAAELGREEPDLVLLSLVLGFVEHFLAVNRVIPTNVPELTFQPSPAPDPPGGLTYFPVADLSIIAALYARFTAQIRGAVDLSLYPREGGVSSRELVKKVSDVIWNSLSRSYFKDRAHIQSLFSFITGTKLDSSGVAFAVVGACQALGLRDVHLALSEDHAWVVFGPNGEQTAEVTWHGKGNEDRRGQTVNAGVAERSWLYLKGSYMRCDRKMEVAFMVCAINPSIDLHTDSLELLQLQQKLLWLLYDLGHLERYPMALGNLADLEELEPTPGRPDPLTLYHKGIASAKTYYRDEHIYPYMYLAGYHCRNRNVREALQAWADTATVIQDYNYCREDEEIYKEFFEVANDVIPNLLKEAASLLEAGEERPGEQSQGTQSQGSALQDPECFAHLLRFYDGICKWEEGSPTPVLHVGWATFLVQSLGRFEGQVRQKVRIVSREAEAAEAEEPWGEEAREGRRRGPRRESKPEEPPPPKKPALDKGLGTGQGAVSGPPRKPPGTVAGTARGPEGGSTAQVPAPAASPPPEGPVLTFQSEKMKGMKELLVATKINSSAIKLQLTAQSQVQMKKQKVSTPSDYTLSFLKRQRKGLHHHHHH
Test: Menin/MLL homogenous time-resolved fluorescence (HTRF) assay
Format: binding
Settings: 30 min incubation
In short: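 Competition binding read by time-resolved FRET (FITC 520 nm over terbium 490 nm) after compound meets labeled menin 1-610-His […] for 30 min, then FITC-MBM1 (75 nM) for 15 min, ambient temperature, 0.5% DMSO. Eleven-point four-fold dilutions, usually starting at 10 μM, fitted to four-parameter curves for IC50.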

**Q.** How did the IC50 turn out when `CCN(C(=O)c1cc(F)ccc1-n1cc(CC2CN(C(C(C)C)[C@H]3C[C@@H](N4C[C@H]5CN(C(C)=O)C[C@@H]5C4)C3)C2)c2c(C)cncc21)C(C)C` (mixture of isomers) [Compound 38a] was run?
**A.** 0.036 nM

**Q.** For `Cc1cncc2c1c(C[C@H]1CCN(C(C)C3CCOCC3)C1)cn2-c1ccc(F)cc1C(=O)N(C)C(C)C` (mixture of isomers) [Compound 49], which IC50 is on record?
**A.** 0.048 nM

**Q.** For `CC(=O)N1CCN([C@H]2C[C@@H]([C@@H](C(C)C)N3CC(Cc4cn(-c5ccc(F)cc5C(=O)N(C)C(C)C)c5cncc(C)c45)C3)C2)CC1` (single isomer, unassigned) [Compound 32a], which IC50 is on record?
**A.** 0.062 nM

**Q.** `CC(=O)N1C[C@@H]2CN([C@H]3C[C@@H]([C@@H](C(C)C)N4CC(Cc5cn(-c6ccc(F)cc6C(=O)N(C)C(C)C)c6cncc(Cl)c56)C4)C3)C[C@H]2C1` (single isomer, unassigned) [Compound 39a] was tested. Which IC50 did it give?
**A.** 0.034 nM

**Q.** How did the IC50 turn out when `Cc1cncc2c1c(C[C@@H]1CCN(CC3CCOCC3)C1)cn2-c1ccc(F)cc1C(=O)N(C)C(C)C` (single isomer, unassigned) [Compound 42] was run?
**A.** 0.03 nM

**Q.** With `Cc1cncc2c1c(C[C@H]1CCN(CC3CCOCC3)C1)cn2-c1ccc(F)cc1C(=O)N(C)C(C)C` (single isomer, unassigned) [Compound 43] as the molecule, how does the IC50 read?
**A.** 0.027 nM

**Q.** With `Cc1cncc2c1c(C[C@@H]1CCN(CC(C)C)C1)cn2-c1ccc(F)cc1C(=O)N(C)C(C)C` (single isomer, unassigned) [Compound 44] as the molecule, how does the IC50 read?
**A.** 0.06 nM

**Q.** For `Cc1cncc2c1c(C[C@H]1CCN(CC(C)C)C1)cn2-c1ccc(F)cc1C(=O)N(C)C(C)C` (single isomer, unassigned) [Compound 45], which IC50 is on record?
**A.** 0.054 nM

**Q.** How did the IC50 turn out when `Cc1cncc2c1c(C[C@H]1CCN([C@@H](C)C3CCOCC3)C1)cn2-c1ccc(F)cc1C(=O)N(C)C(C)C` (single isomer, unassigned) [Compound 49b] was run?
**A.** 0.06 nM

**Q.** How did the IC50 turn out when `CC(=O)N1CCC(CN2CC[C@@H](Cc3cn(-c4ccc(F)cc4C(=O)N(C)C(C)C)c4cncc(C)c34)C2)CC1` (single isomer, unassigned) [Compound 50] was run?
**A.** 0.079 nM

**Q.** How did the IC50 turn out when `COCC(=O)N1CCC(CN2CCC(Cc3cn(-c4ccc(F)cc4C(=O)N(C)C(C)C)c4cncc(C)c34)C2)CC1` (single isomer, unassigned) [Compound 59] was run?
**A.** 0.054 nM

**Q.** For `Cc1cncc2c1c(CC1CCN(CC3CCN(C(=O)CC#N)CC3)C1)cn2-c1ccc(F)cc1C(=O)N(C)C(C)C` (single isomer, unassigned) [Compound 60], which IC50 is on record?
**A.** < 0.0095 nM

**Q.** Which IC50 does the source give for `Cc1cncc2c1c(C[C@H]1CCN(C[C@H]3CC[C@H](NS(C)(=O)=O)CC3)C1)cn2-c1ccc(F)cc1C(=O)N(C)C(C)C` (single isomer, unassigned) [Compound 69] here?
**A.** 0.049 nM

**Q.** `CNC(=O)[C@H]1CC[C@H](CN2CCC(Cc3cn(-c4ccc(F)cc4C(=O)N(C)C(C)C)c4cncc(C)c34)C2)CC1` (single isomer, unassigned) [Compound 70] was tested. Which IC50 did it give?
**A.** 0.114 nM

**Q.** For `CNC(=O)[C@H]1CC[C@H](CN2CCC(Cc3cn(-c4ccc(F)cc4C(=O)N(C)C(C)C)c4cncc(C)c34)C2)CC1` (single isomer, unassigned) [Compound 71], which IC50 is on record?
**A.** 0.202 nM

**Q.** How did the IC50 turn out when `Cc1cncc2c1c(C[C@@H]1CCN(CC3CCOCC3)C1)cn2-c1ccc(F)cc1C(=O)N(C[C@H](C)O)C(C)C` (single isomer, unassigned) [Compound 365b] was run?
**A.** 0.081 nM

**Q.** `COCCN(C)CCCC(C(C)C)N1CC[C@@H](Cc2cn(-c3ccc(F)cc3C(=O)N(C)C(C)C)c3cncc(C)c23)C1` (some centres unmarked) [Compound 1] was tested. Which IC50 did it give?
**A.** 0.033 nM

**Q.** How did the IC50 turn out when `Cc1cncc2c1c(CC1CN([C@@H](C(C)C)[C@H]3C[C@@H](N4CCC(S(C)(=O)=O)CC4)C3)C1)cn2-c1ccc(F)cc1C(=O)N(C)C(C)C` [Compound 33a] was run?
**A.** 0.07 nM

**Q.** Which IC50 does the source give for `CCN(C(=O)c1cc(F)ccc1-n1cc(CC2CN(C(C(C)C)[C@H]3C[C@@H](N4CCN(S(C)(=O)=O)CC4)C3)C2)c2c(C)cncc21)C(C)C` (some centres unmarked) [Compound 37a] here?
**A.** 0.126 nM

**Q.** `CC(C)C([C@H]1C[C@@H](N(C)C)C1)N1CC(Cc2cn(-c3ccc(F)cc3C(=O)N(C)C(C)C)c3cncc(Cl)c23)C1` (some centres unmarked) [Compound 41] was tested. Which IC50 did it give?
**A.** 0.202 nM

**Q.** `CC(=O)N1CCC(CN2CCC(Cc3cn(-c4ccc(F)cc4C(=O)N(C)C(C)C)c4cncc(C)c34)CC2)CC1` [Compound 58] was tested. Which IC50 did it give?
**A.** 0.135 nM

**Q.** Which IC50 does the source give for `Cc1cncc2c1c(CC1CN(CC3CCOCC3)C1)cn2-c1ccc(F)cc1C(=O)N(C)C(C)C` [Compound 61] here?
**A.** 0.132 nM

**Q.** For `CC(=O)N1CCC(CN2CC(Cc3cn(-c4ccc(F)cc4C(=O)N(C)C(C)C)c4cncc(C)c34)C2)CC1` [Compound 63], which IC50 is on record?
**A.** 0.176 nM

**Q.** `COCC(=O)N1CCC(CN2CC(Cc3cn(-c4ccc(F)cc4C(=O)N(C)C(C)C)c4cncc(C)c34)C2)CC1` [Compound 66] was tested. Which IC50 did it give?
**A.** 0.037 nM

**Q.** Which IC50 does the source give for `Cc1cncc2c1c(CC1CN(CC3CCN(C(=O)CC#N)CC3)C1)cn2-c1ccc(F)cc1C(=O)N(C)C(C)C` [Compound 67] here?
**A.** ~0.043 nM

**Q.** Which IC50 does the source give for `Cc1cncc2c1c(C[C@@H]1CCN(CC3CCOCC3)C1)cn2-c1ccc(F)cc1C(=O)N(CCO)C(C)C` [Compound 357] here?
**A.** 0.035 nM
